Measurements taken from ChEMBL document CHEMBL2163253, “Identification and preliminary characterization of a potent, safe, and orally efficacious inhibitor of acyl-CoA:diacylglycerol acyltransferase 1” (J Med Chem, 2012).
One block for each molecule: values may come before it. Activity calls are given as the source filed them. The calls are words filed in the database; no cut-off is given here.

Experiments:
[1] = Stability in human liver microsomes assessed as parent compound remaining measured after 60 mins; format: ADME, Microsome; conditions: read-out: Stability
[2] = molecular target: T1, Diacylglycerol O-acyltransferase 1 (Homo sapiens, UniProt O75907); assay: biochemical
T1 sequence (O75907 whole entry): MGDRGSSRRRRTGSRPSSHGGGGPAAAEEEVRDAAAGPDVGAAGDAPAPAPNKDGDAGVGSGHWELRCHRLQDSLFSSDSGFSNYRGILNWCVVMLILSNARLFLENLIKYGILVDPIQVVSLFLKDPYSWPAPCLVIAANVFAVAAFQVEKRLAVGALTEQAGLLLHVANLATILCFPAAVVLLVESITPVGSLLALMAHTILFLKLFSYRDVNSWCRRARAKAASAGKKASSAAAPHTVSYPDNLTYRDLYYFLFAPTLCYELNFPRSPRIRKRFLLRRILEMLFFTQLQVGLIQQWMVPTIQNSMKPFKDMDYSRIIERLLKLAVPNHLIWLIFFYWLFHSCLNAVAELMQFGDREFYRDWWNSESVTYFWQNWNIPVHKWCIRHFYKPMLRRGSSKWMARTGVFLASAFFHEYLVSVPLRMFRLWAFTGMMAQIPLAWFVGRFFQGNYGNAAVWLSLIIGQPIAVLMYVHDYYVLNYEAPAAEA
Description: Inhibition of N-terminal His6-tagged human recombinant DGAT1 expressed in insect cell membrane using [1-14C]decanoyl-CoA substrate by phospholipid flash plate assay

[3] = molecular target: T2, Diacylglycerol O-acyltransferase 1 (Mus musculus, UniProt Q9Z2A7); assay: Inhibition of mouse DGAT1 using [1-14C]decanoyl-CoA substrate by phospholipid flash plate assay
T2 sequence (Q9Z2A7 whole entry): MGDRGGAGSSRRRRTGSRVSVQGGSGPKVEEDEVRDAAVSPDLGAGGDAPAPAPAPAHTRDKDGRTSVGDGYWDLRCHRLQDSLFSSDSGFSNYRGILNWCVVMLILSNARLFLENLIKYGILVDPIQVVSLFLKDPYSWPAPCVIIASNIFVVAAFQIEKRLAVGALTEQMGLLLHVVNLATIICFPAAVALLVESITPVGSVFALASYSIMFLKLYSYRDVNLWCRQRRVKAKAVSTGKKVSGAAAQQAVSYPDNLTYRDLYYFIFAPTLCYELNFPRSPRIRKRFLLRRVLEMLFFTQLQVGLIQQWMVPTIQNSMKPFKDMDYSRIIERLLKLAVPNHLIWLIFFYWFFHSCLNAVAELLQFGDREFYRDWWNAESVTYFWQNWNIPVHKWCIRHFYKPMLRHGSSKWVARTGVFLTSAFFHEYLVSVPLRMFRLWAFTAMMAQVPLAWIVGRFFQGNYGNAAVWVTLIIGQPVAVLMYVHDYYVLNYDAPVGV

[4] = Plasma clearance in rat at 5 mg/kg, iv administered as single dose; format: ADME, organism-based; design: dose 5 mg/kg, route intravenous
[5] = Oral bioavailability in mouse at 10 mg/kg administered as single dose; format: ADME, organism-based; conditions: in vivo
[6] = Cmax in dog; format: ADME, organism-based, Canis lupus familiaris; conditions: plasma
[7] = Plasma clearance in mouse at 10 mg/kg, iv administered as single dose; format: ADME, organism-based; design: dose 10 mg/kg, route intravenous
[8] = Plasma concentration in CD1 mouse postprandial hyperlipidemia model at 3 mg/kg, po administered as single dose 1 hr before oral corn oil bolus challenge and measured after 2 hrs; format: ADME, organism-based; design: dose 3 mg/kg, route oral
Canis familiaris [9] = assay: Toxicity in dog assessed as toxicity symptoms at terminal compound concentration dosed orally for 2 weeks; format: organism-based, Canis lupus familiaris; conditions: in vivo, po, 336 h
[10] = molecular target: T3, Diacylglycerol O-acyltransferase 2 (Homo sapiens, UniProt Q96PD7); assay: Inhibition of human recombinant DGAT2 expressed in insect cell membrane using [1-14C]decanoyl-CoA substrate by phospholipid flash plate assay
T3 sequence (Q96PD7 whole entry): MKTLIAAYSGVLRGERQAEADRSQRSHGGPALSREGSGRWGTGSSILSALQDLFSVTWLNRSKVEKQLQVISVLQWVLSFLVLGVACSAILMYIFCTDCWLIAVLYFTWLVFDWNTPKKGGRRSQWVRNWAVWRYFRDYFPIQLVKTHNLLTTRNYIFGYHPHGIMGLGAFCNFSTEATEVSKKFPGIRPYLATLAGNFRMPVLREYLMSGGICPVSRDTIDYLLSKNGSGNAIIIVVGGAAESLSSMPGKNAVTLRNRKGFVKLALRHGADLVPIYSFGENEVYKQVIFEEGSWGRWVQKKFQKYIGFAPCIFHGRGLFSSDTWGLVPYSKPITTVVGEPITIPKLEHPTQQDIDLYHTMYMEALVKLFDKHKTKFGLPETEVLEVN

Rattus norvegicus [11] = assay: AUC in female rat dosed orally for 2 weeks assessed as terminal exposure; conditions: in vivo, po, 336 h
[12] = Efflux ratio in human Caco2 cells at 5 uM at pH 7.4; format: ADME, cell-based; conditions: Caco-2, pH 7.4
[13] = Terminal half life in mouse at 10 mg/kg, po administered as single dose; format: ADME, organism-based; design: dose 10 mg/kg, route oral; conditions: in vivo, read-out: beta t1/2 (converted)
[14] = Terminal half life in rat at 5 mg/kg, iv administered as single dose; format: ADME, organism-based; design: dose 5 mg/kg, route intravenous; conditions: in vivo, read-out: beta t1/2 (converted)
Rattus norvegicus [15] = species: Rattus norvegicus; assay: Toxicity in rat assessed as changes in gastrointestinal transit measured at highest compound concentration; format: organism-based; conditions: in vivo
[16] = Cmax in rat at 5 mg/kg, po administered as single dose; format: ADME, organism-based; design: dose 5 mg/kg, route oral; conditions: in vivo
[17] = Cmax in mouse at 10 mg/kg, po administered as single dose; format: ADME, organism-based; design: dose 10 mg/kg, route oral; conditions: in vivo
Mus musculus [18] = assay: Reduction in serum triglyceride level in CD1 mouse postprandial hyperlipidemia model at 0.03 mg/kg, po administered as single dose 1 hr before oral corn oil bolus challenge and measured after 2 hrs; format: functional; design: scale not given: the % may be the effect or the level left
Mus musculus [19] = assay: Reduction in serum triglyceride level in overnight fasted DIO mouse model at 0.3 mg/kg, po administered as single dose 1 hr before and for 5 hrs after oral corn oil bolus challenge; format: functional, organism-based; design: dose 0.3 mg/kg
[20] = Efflux ratio in human Caco2 cells at 0.5 uM at pH 7.4; format: ADME, cell-based; conditions: Caco-2, pH 7.4
Mus musculus [21] = assay: Reduction in serum triglyceride level in CD1 mouse postprandial hyperlipidemia model administered orally as single dose 1 hr before oral corn oil bolus challenge and measured after 2 hrs; format: functional, organism-based
Mus musculus [22] = assay: Reduction in serum triglyceride level in CD1 mouse postprandial hyperlipidemia model at 0.3 mg/kg, po administered as single dose 1 hr before oral corn oil bolus challenge and measured after 2 hrs; format: functional; design: scale not given: the % may be the effect or the level left
[23] = molecular target: T1, Diacylglycerol O-acyltransferase 1; assay: Inhibition of human DGAT1 expressed in human HeLa cells assessed as reduction in triglyceride synthesis; format: cell-based
[24] = AUC in mouse at 10 mg/kg, po administered as single dose; format: ADME, organism-based; design: dose 10 mg/kg, route oral; conditions: plasma
[25] = Toxicity in dog Purkinje fibers assessed as prolongation of APD90 by Purkinje fibers repolarization assay; format: tissue-based, Canis lupus familiaris, Purkinje fiber; conditions: in vitro
[26] = Terminal half life in rat at 5 mg/kg, po administered as single dose; format: ADME, organism-based; design: dose 5 mg/kg, route oral; conditions: in vivo, read-out: beta t1/2 (converted)
Mus musculus [27] = assay: Reduction in serum triglyceride level in CD1 mouse postprandial hyperlipidemia model at 3 mg/kg, po administered as single dose 1 hr before oral corn oil bolus challenge and measured after 2 hrs; format: functional; design: scale not given: the % may be the effect or the level left
[28] = Terminal half life in mouse at 10 mg/kg, iv administered as single dose; format: ADME, organism-based; design: dose 10 mg/kg, route intravenous; conditions: in vivo, read-out: beta t1/2 (converted)
[29] = Plasma concentration in CD1 mouse postprandial hyperlipidemia model at 0.03 mg/kg, po administered as single dose 1 hr before oral corn oil bolus challenge and measured after 2 hrs; format: ADME, organism-based; design: dose 0.03 mg/kg, route oral
[30] = Stability in mouse liver microsomes assessed as parent compound remaining measured after 60 mins; format: ADME, Microsome; conditions: read-out: Stability
[31] = Volume of distribution at steady state in rat at 5 mg/kg, iv administered as single dose; format: ADME, organism-based; design: dose 5 mg/kg, route intravenous; conditions: in vivo, read-out: Vdss
[32] = molecular target: Voltage-gated inwardly rectifying potassium channel KCNH2 (Homo sapiens, UniProt Q12809); assay: Inhibition of human ERG by manual patch clamp assay
[33] = Volume of distribution at steady state in mouse at 10 mg/kg, iv administered as single dose; format: ADME, organism-based; design: dose 10 mg/kg, route intravenous; conditions: in vivo, read-out: Vdss
Canis familiaris [34] = assay: AUC in dog dosed orally for 2 weeks assessed as terminal exposure; conditions: in vivo, po, 336 h
[35] = AUC in rat at 5 mg/kg, po administered as single dose; format: ADME, organism-based; design: dose 5 mg/kg, route oral; conditions: plasma
[36] = Cmax in rat; format: ADME, organism-based; conditions: plasma
Mustela putorius furo = species: Mustela putorius furo; assay: Toxicity in ferret assessed as induction of emesis; format: organism-based; conditions: in vivo
Canis familiaris [37] = species: Canis familiaris; assay: Toxicity in dog assessed as incidence of hemodynamic effect measured at highest compound concentration; format: organism-based, Canis lupus familiaris; conditions: in vivo
[38] = Permeability in human Caco2 cells at 0.5 uM at pH 7.4; format: ADME, cell-based; conditions: Caco-2, pH 7.4, read-out: permeability
[39] = Oral bioavailability in rat at 5 mg/kg administered as single dose; format: ADME, organism-based; conditions: in vivo
Rattus norvegicus [40] = assay: Toxicity in female rat assessed as toxicity symptoms at terminal compound concentration dosed orally for 2 weeks; format: organism-based; conditions: in vivo, po, 336 h
[41] = Plasma concentration in CD1 mouse postprandial hyperlipidemia model at 0.3 mg/kg, po administered as single dose 1 hr before oral corn oil bolus challenge and measured after 2 hrs; format: ADME, organism-based; design: dose 0.3 mg/kg, route oral

Voltage-gated inwardly rectifying potassium channel KCNH2, sequence (Q12809 whole entry): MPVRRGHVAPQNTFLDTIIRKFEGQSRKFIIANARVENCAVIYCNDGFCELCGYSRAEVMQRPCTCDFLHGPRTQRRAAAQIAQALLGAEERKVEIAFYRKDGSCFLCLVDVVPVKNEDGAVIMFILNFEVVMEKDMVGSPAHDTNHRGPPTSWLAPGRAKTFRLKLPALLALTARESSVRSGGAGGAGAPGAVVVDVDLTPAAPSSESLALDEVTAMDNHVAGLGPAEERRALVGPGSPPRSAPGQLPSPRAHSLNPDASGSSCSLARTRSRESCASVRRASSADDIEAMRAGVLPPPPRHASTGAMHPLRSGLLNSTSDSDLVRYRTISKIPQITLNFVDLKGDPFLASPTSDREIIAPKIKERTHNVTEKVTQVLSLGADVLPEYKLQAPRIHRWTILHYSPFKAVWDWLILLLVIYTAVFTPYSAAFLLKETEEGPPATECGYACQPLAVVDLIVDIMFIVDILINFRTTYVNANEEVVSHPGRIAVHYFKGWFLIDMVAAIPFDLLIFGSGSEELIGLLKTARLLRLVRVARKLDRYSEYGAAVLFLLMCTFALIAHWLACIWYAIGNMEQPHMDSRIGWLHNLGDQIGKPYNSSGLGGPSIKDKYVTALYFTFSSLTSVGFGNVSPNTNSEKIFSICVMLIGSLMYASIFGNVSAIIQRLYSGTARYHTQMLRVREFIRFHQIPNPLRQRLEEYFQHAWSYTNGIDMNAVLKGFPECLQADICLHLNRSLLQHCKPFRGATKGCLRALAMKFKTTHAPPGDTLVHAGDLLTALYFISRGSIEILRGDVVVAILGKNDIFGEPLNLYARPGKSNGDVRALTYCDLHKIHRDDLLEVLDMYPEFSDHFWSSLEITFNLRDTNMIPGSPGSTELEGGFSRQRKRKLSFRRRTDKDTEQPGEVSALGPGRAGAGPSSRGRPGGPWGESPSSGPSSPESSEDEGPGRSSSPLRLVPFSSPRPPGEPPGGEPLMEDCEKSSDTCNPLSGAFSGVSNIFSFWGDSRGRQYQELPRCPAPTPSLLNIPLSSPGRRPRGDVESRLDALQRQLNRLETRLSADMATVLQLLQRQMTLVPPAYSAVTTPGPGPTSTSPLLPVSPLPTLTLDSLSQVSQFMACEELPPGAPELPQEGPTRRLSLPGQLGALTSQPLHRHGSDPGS

- remaining at 1 h [1]: < 5%
Structure (SMILES): Nc1c(-c2ccc(Br)cc2)cnc2ccnn12

- remaining at 1 h [1]: 69%
- IC50 [2]: > 10 µM
Structure (SMILES): Nc1c(-c2ccccc2Br)cnc2ccnn12

- remaining at 1 h [1]: 100%
- IC50 [2]: > 10 µM
Structure (SMILES): Nc1c(-c2ccc(C(=O)O)cc2)cnc2ccnn12

- remaining at 1 h [1]: 91%
- IC50 [2]: > 10 µM
Structure (SMILES): CS(=O)(=O)c1ccc(-c2cnc3ccnn3c2N)cc1

Continued, molecule first:

Structure (SMILES): CC(C)(C)c1ccc(-c2cncnc2N)cc1
- remaining at 1 h [1]: 73%

Structure (SMILES): CC(C)c1ccc(-c2cnc3ccnn3c2N)cc1
- remaining at 1 h [1]: < 5%

Structure (SMILES): Nc1c(-c2ccccc2)cnc2ccnn12
- IC50 [2]: > 10 µM

Structure (SMILES): Nc1c(-c2cccc(Br)c2)cnc2ccnn12
- remaining at 1 h [1]: < 5%
- IC50 [2]: > 10 µM

Structure (SMILES): Nc1c(-c2ccc([C@H]3CC[C@H](CC(=O)O)CC3)cc2)cnc2ccnn12
- IC50 [3]: 0.008 µM
- clearance [4]: 0.833 mL/min/kg
- bioavailability [5]: 78%
- Cmax [6]: 20500 ng/mL
- clearance [7]: 1.67 mL/min/kg
- concentration at 2 h [8]: 3100 ng/mL
- Activity (Canis familiaris [9]): Non-toxic
- IC50 [10]: > 10 µM
- AUC (Rattus norvegicus [11]): 3455 µg·h/mL
- efflux ratio at 5 µM [12]: 1.1
- half-life [13]: 5.1 h
- half-life [14]: 3.8 h
- Activity (Rattus norvegicus [15]): Non-toxic
- Cmax [16]: 9300 ng/mL
- remaining at 1 h [1]: 97%
- Cmax [17]: 17400 ng/mL
- Activity (Mus musculus [18]): 40%
- Activity (Mus musculus [19]): Active
- efflux ratio at 0.5 µM [20]: 1.4
- Activity (Mus musculus [21]): Dose-dependent effect
- Activity (Mus musculus [22]): 60%
- IC50 [23]: 0.078 µM
- AUC [24]: 151 µg·h/mL
- Activity [25]: Non-toxic
- half-life [26]: 5.6 h
- Activity (Mus musculus [27]): 90%
- half-life [28]: 4.6 h
- concentration at 2 h [29]: 33 ng/mL
- IC50 [2]: 0.008 µM
- remaining at 1 h [30]: 99%
- Vd [31]: 0.3 L/kg
- IC50 [32]: > 300 µM
- Vd [33]: 0.3 L/kg
- AUC (Canis familiaris [34]): 789 µg·h/mL
- AUC [35]: 130 µg·h/mL
- Cmax [36]: 30200 ng/mL
- Activity (Mustela putorius furo): Non-toxic
- Activity (Canis familiaris [37]): Non-toxic
- Papp at 0.5 µM [38]: 84 ×10⁻⁶ cm/s
- bioavailability [39]: 91%
- Activity (Rattus norvegicus [40]): Non-toxic
- concentration at 2 h [41]: 360 ng/mL

Structure (SMILES): CC(C)(C)c1ccc(-c2cnc3ccnn3c2N)cc1
- remaining at 1 h [1]: 16%
